From ChEMBL document CHEMBL5154845, “Dual-acting antitumor agents targeting the A2A adenosine receptor and histone deacetylases: Design and synthesis of 4-(furan-2-yl)-1H-pyrazolo[3,4-d]pyrimidin-6-amine derivatives” (Eur J Med Chem, 2022)
Calls of active or inactive are those of the source. No cut-off for these calls is given here.

Assays:
Histone deacetylase 1 = Histone deacetylase 1 (Homo sapiens, UniProt Q13547); assay: Inhibition of HDAC1 (unknown origin) using trypsin and LGK(Ac)-AMC as substrates incubated for 1 hr and measured by fluorescence assay
Histone deacetylase 8 = biological target: T1, Histone deacetylase 8 (Homo sapiens, UniProt Q9BY41); assay: Inhibition of HDAC8 (unknown origin) using trypsin and LGK(Ac)-AMC as substrates incubated for 1 hr and measured by fluorescence assay
T1 sequence (Q9BY41 whole entry): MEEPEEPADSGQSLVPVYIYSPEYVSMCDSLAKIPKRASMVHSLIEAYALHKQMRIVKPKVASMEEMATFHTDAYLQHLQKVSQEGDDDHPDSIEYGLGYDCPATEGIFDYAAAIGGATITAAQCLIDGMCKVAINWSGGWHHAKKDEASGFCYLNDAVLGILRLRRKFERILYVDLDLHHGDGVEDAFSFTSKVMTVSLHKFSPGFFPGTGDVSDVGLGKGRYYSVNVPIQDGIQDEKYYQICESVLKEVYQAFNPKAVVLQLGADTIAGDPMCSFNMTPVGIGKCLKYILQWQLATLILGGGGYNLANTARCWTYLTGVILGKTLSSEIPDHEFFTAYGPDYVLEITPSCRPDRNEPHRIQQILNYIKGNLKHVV

Histone deacetylase 3 = Histone deacetylase 3 (Homo sapiens, UniProt O15379); assay: Inhibition of HDAC3 (unknown origin) using trypsin and LGK(Ac)-AMC as substrates incubated for 1 hr and measured by fluorescence assay
Adenosine receptor A2a = Adenosine receptor A2a (Homo sapiens, UniProt P29274); assay: Displacement of [3H][…] from human A2AAR incubated for 60 mins by scintillation counter analysis
MC-38 = assay: Antiproliferative activity against mouse MC38 cells after 72 hrs by CCK-8 assay; format: functional
CT26 = assay: Antiproliferative activity against mouse CT26 cells after 72 hrs by CCK-8 assay; format: functional
MC38 [1] = assay: Inhibition of HDAC in mouse MC38 cells assessed as increase in H3 acetylation at 0.1 to 10 uM measured by western blot analysis; format: cell-based; settings: dose 0.1-10 µM
Histone deacetylase 2 = Histone deacetylase 2 (Homo sapiens, UniProt Q92769); assay: Inhibition of HDAC2 (unknown origin) using trypsin and LGK(Ac)-AMC as substrates incubated for 1 hr and measured by fluorescence assay
MC38 [2] = assay: Inhibition of HDAC in mouse MC38 cells assessed as increase in H4 acetylation at 0.1 to 10 uM measured by western blot analysis; format: cell-based; settings: dose 0.1-10 µM
[3] = biological target: T2, Protein deacetylase HDAC6 (Homo sapiens, UniProt Q9UBN7); assay: Inhibition of HDAC6 (unknown origin) using trypsin and LGK(Ac)-AMC as substrates incubated for 1 hr and measured by fluorescence assay
T2 sequence (Q9UBN7 whole entry): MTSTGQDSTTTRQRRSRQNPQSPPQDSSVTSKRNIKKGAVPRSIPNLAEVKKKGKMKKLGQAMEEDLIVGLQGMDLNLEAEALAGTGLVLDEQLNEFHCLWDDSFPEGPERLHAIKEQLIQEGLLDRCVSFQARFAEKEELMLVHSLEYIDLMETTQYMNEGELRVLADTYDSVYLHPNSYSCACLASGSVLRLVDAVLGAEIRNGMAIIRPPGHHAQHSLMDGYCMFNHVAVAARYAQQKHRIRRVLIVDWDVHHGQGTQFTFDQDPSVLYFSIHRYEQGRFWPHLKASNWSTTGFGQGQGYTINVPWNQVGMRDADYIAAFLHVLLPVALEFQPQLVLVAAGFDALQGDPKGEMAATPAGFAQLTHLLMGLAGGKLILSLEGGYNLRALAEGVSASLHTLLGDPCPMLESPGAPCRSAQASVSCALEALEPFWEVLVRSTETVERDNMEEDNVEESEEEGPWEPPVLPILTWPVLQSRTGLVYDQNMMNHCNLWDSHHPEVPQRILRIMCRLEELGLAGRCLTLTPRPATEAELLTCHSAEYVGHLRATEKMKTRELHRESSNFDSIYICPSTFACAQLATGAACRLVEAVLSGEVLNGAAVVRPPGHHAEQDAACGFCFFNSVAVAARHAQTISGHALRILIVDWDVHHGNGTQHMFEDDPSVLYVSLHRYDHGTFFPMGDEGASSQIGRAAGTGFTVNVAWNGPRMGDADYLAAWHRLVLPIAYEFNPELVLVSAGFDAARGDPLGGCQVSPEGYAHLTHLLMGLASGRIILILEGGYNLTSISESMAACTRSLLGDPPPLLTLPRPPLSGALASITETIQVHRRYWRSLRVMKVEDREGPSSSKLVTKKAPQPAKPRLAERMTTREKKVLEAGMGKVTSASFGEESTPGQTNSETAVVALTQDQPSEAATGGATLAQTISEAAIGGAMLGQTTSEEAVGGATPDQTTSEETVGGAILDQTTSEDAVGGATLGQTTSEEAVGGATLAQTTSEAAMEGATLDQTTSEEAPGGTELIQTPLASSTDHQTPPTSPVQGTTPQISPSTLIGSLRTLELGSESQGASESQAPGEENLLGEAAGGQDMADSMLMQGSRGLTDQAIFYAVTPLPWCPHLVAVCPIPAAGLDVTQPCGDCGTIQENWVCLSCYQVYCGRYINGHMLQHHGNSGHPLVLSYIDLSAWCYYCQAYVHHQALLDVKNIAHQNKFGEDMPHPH

Adenosine receptor A1 = biological target: T3, Adenosine receptor A1 (Homo sapiens, UniProt P30542); assay: Displacement of [3H]DPCPX from human A1AR incubated for 60 mins by scintillation counter analysis
T3 sequence (P30542 whole entry): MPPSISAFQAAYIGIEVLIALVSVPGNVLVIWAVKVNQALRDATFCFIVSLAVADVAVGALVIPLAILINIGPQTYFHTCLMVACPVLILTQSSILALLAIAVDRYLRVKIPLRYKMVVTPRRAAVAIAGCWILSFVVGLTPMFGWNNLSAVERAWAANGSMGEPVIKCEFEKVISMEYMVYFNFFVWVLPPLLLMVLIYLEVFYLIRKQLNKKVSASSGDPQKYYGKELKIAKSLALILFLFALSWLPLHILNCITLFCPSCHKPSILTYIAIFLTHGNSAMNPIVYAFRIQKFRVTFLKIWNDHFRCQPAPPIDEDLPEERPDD

Adenosine receptor A2b = biological target: T4, Adenosine receptor A2b (Homo sapiens, UniProt P29275); assay: Displacement of [3H]DPCPX from human A2BAR incubated for 60 mins by scintillation counter analysis
T4 sequence (P29275 whole entry): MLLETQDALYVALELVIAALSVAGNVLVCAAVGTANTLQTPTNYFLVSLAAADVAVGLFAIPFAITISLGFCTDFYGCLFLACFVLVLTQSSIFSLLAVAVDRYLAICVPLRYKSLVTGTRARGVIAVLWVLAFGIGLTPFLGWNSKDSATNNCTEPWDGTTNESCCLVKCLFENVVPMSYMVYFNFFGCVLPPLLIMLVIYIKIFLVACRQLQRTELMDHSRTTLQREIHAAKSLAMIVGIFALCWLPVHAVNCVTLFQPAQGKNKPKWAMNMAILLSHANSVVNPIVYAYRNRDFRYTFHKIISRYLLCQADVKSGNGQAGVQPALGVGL

Adenosine receptor A3 = biological target: T5, Adenosine receptor A3 (Homo sapiens, UniProt P0DMS8); assay: Displacement of [3H]HEMADO from human A3AR incubated for 60 mins by scintillation counter analysis
T5 sequence (P0DMS8 whole entry): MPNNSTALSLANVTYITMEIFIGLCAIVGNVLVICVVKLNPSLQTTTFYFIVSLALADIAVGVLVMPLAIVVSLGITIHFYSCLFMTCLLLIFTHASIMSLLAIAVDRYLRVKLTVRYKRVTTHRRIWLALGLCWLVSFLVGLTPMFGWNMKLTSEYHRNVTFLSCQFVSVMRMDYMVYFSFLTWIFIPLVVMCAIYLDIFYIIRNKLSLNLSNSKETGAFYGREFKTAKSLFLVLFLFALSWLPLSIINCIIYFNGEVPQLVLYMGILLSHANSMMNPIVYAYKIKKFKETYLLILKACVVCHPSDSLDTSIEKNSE

Histone deacetylase 3, sequence (O15379 whole entry): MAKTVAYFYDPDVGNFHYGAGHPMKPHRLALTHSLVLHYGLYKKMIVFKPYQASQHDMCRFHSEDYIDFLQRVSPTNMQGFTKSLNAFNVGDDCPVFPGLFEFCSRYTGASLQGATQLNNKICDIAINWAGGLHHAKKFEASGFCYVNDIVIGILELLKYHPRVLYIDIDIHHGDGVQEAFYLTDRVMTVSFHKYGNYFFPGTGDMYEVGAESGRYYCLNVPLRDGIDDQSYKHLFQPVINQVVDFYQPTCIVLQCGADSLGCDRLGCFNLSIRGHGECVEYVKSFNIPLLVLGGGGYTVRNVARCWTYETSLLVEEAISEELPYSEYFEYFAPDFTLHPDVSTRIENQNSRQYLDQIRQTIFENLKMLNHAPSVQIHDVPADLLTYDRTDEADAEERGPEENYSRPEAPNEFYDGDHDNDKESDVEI
Histone deacetylase 1, sequence (Q13547 whole entry): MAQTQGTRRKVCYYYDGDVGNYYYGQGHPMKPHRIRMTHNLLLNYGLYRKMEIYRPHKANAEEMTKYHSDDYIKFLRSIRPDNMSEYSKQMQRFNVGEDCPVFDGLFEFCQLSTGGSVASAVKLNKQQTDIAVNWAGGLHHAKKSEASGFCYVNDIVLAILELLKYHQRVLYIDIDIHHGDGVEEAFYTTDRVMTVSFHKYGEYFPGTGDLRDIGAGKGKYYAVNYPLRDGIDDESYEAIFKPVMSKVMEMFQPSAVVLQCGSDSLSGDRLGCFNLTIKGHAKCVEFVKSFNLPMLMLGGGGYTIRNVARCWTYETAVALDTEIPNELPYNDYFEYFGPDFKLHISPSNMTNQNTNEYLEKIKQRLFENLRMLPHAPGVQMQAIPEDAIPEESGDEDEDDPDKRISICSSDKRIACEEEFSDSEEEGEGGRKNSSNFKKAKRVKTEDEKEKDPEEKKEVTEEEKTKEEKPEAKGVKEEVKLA
Adenosine receptor A2a, sequence (P29274 whole entry): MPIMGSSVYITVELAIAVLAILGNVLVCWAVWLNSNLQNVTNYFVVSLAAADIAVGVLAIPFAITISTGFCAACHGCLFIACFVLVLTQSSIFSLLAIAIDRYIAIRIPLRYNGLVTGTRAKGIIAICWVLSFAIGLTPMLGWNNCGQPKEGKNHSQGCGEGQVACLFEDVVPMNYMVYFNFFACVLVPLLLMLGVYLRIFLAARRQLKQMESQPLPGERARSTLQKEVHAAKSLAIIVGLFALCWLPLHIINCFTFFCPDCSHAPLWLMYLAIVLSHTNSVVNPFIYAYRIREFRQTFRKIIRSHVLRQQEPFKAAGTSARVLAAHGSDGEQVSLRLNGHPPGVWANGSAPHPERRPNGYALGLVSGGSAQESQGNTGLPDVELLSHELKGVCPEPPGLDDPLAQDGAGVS
Histone deacetylase 2, sequence (Q92769 whole entry): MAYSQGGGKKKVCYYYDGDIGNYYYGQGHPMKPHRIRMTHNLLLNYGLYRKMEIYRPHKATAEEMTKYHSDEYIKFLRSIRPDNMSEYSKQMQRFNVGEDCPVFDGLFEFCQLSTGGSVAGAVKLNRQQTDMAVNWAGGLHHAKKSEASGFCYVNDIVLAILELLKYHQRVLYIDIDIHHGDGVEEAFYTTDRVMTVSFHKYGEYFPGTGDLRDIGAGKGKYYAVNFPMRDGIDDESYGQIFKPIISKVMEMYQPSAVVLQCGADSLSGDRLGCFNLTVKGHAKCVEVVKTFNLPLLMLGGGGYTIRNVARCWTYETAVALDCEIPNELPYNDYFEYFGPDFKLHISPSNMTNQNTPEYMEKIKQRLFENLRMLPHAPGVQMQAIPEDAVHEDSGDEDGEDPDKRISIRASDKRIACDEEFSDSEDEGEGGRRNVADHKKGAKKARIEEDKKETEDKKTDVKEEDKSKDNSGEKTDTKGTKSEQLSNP

IC50 (Histone deacetylase 1): 18.5 nM
IC50 (Histone deacetylase 8): 1410 nM
IC50 (Histone deacetylase 3): 13.6 nM
Ki (Adenosine receptor A2a): 10.3 nM
GI50 (CT26): 12600 nM
IC50 (Histone deacetylase 2): 16 nM
IC50 [3]: 2.1 nM
Ki (Adenosine receptor A1): 106 nM
Ki (Adenosine receptor A2b): 513 nM
Ki (Adenosine receptor A3): > 10000 nM
SMILES: Nc1nc(-c2ccco2)c2cnn(Cc3cccc(OCCCCCCC(=O)NO)c3)c2n1
GI50 (MC-38): 12200 nM
inhibition (MC38 [1]): Active
inhibition (MC38 [2]): Active
